The test system of this test is Adjuvant induced rheumatoid arthritis in rats. The experiment in a line: In vivo anti-arthritic activity: Freund's complete adjuvant induced arthritis in rats. Further details: species or system Male Wistar rats. The settings on record: reference group, dose not given. The protocol:
Male Wistar rats weighing […] were orally dosed with 100, 200 and 400 mg/kg of spent turmeric polysaccharide from day 1-day 28. The animals were given intra-dermal injection of Freund's complete adjuvant in the paw at a dosage level of 0.1 ml on days 7, 15, 21 and 28 of the study to induce arthritis. Oedema induced by the adjuvant was measured as increase in paw volumes on days 7, 15, 21 and 28. At the end of the study, animals were sacrificed and blood and tissue collected for analyzing the inflammatory parameters. The inflammatory parameters studied included, • a. Inflammation in the paws • b. Blood Biochemistry • c. Lipid Per oxidation • d. Reduced Glutathione in serum • e. Superoxide dismutase activity in serum • f. Levels of Acid and Alkaline phosphatase • g. TNF-α levels • h. IL6 levels

With `CC(=O)Oc1ccccc1C(=O)O` [ASA, Acetyl salicylic acid], the “ACP (acid phosphatase)” value is listed as 6.71 ± 0.06 IU/ml, the “ALP (alkaline phosphatase)” value amounted to 104.18 ± 0.94 IU/ml, the “LIPID PEROXIDATION malondialdehyde formed” value was 18.19 ± 0.10 nm/g tissue and the Platelets was 232 ± 2.65 10^9/L. Moreover, the “Red blood corpuscles-RBCs” value is given as 4.70 ± 0.04 10^6 Cells /μl, the “Reduced Glutathione” value came to 595.69 ± 0.64 μg/g tissue, the “SUPEROXIDE DISMUTASE” value is recorded as 16.39 ± 0.01 g activity in tissue/min and the “White blood corpuscles-WBCs” value is on record as 7800.0 ± 85.63 Cells/μl.

For the origin of these results see patent US11298395B2, “Isolates from spent turmeric for the management of rheumatoid arthritis” (SAMI LABS LIMITED, priority 2017, dated 2022).
